{
  "source": "patent US10806730B2",
  "about": "“Methods of treating cancer with farnesyltransferase inhibitors” (Kura Oncology, Inc., priority 2017, dated 2020)",
  "format_in_all_cases": "in vivo, human",
  "key": {"[1]": {"system": "relapsed and refractory AML", "test": "INT-17 Phase 2 tipifarnib study", "procedure": "(§1) Clinical studies with tipifarnib were performed in newly diagnosed elderly patients with poor risk AML (CTEP-20, Phase 2) and relapsed and refractory AML (INT-17, Phase 2). Patient selection in these studies was not based on genetic markers. Anecdotal evidence of tipifarnib single agent activity was reported. […] Median OS in the overall study was 107 days for the Tipifarnib group and 109 days for the BSC group in AML301."}, "[2]": {"system": "newly diagnosed elderly patients with poor risk AML", "test": "CTEP-20 Phase 2 tipifarnib study", "procedure": "as §1"}, "[3]": {"system": "elderly patients with newly diagnosed, de novo, or secondary AML", "test": "Ph3 study AML301, tipifarnib vs BSC", "procedure": "as §1"}, "[4]": {"system": "higher risk MDS/CMML subjects", "test": "Clinical study of tipifarnib (INT-28) in higher risk MDS/CMML", "procedure": "A clinical study of tipifarnib (300 mg bid (twice daily), 3 weeks on/1 week off) was conducted in 82 higher risk MDS/CMML subjects. 67 subjects were transfusion dependent (TD) at study entry, whereby a subject receiving one or several red blood cell (RBC) transfusions during screening and up to the first administration of tipifarnib was classified as TD.\n30/67 (45%) MDS subjects were initially classified as having moderate to severe neutropenia, based on their absolute neutrophil count (ANC) of <1,000 cells/μl blood prior to receiving tipifarnib. The ANC of the remaining 37/67 (55%) MDS subjects was ≥1,000 cells/μl blood. 9/30 (30%) MDS subjects with moderate to severe neutropenia and 2/37 (5%) MDS subjects without moderate to severe neutropenia converted to transfusion independence during the tipifarnib study. […] The majority of the subjects that developed transfusion independence were of intermediate (INT) risk of developing AML."}, "[5]": {"conditions": "34 study subjects with outcome and expression data"}, "[6]": {"conditions": "CXCR4/CXCR2 expression ratio quartiles 1st-3rd"}, "[7]": {"conditions": "bone marrow CXCR4/CXCR2 expression ratio in the upper quartile"}},
  "data": [
    {"smiles": "Cn1cncc1[C@@](N)(c1ccc(Cl)cc1)c1ccc2c(c1)c(-c1cccc(Cl)c1)cc(=O)n2C", "note": "[tipifarnib]", "values": [
      {"measurement": "overall survival", "setting": "[1]; 57 subjects with CXCR4/CXCR2 ratio data", "result": 87, "unit": "days"},
      {"measurement": "median PFS", "setting": "[1]; AML subjects overexpressing CXCR4, N=8", "result": 143, "unit": "days"},
      {"measurement": "median PFS", "setting": "[1]; AML subjects with relatively lower levels of CXCR4 expression, N=49", "result": 29, "unit": "days"},
      {"measurement": "Median survival", "setting": "[1]; CXCR4/CXCR2 quintile group 1", "result": 56, "unit": "days"},
      {"measurement": "Median survival", "setting": "[1]; CXCR4/CXCR2 quintile group 2", "result": 78, "unit": "days"},
      {"measurement": "Median survival", "setting": "[1]; CXCR4/CXCR2 quintile group 3", "result": 44, "unit": "days"},
      {"measurement": "Median survival", "setting": "[1]; CXCR4/CXCR2 quintile group 4", "result": 105, "unit": "days"},
      {"measurement": "Median survival", "setting": "[1]; CXCR4/CXCR2 quintile group 5", "result": 182, "unit": "days"},
      {"measurement": "HR, 5th quintile of CXCR4/CXCR2 ratio vs rest", "setting": "[1]; p=0.04", "result": 0.52},
      {"measurement": "Median survival", "setting": "[1]; rest of the subjects (not 5th quintile of CXCR4/CXCR2 ratio)", "result": 74, "unit": "days"},
      {"measurement": "Median overall PFS", "setting": "[2]; [5]", "result": 84, "unit": "days"},
      {"measurement": "Median overall survival", "setting": "[2]; [5]", "result": 233, "unit": "days"},
      {"measurement": "median progression free survival (PFS)", "setting": "[2]; BMR<0.1 prior to treatment, N=57", "result": 93, "unit": "days"},
      {"measurement": "median PFS", "setting": "[2]; BMR≥0.1 prior to treatment, N=84", "result": 47, "unit": "days"},
      {"measurement": "Median survival (FIG. 7A, PFS probabilities)", "setting": "[2]; [6]", "result": 67, "unit": "days"},
      {"measurement": "Median survival (FIG. 7B)", "setting": "[2]; [6]", "result": 179, "unit": "days"},
      {"measurement": "HR (FIG. 7B, survival), upper quartile vs quartiles 1st-3rd", "setting": "[2]; CXCR4/CXCR2 expression ratio, p=0.07", "result": 0.26},
      {"measurement": "HR (FIG. 7A, PFS), upper quartile vs quartiles 1st-3rd", "setting": "[2]; CXCR4/CXCR2 expression ratio, p=0.09", "result": 0.44},
      {"measurement": "Median survival (FIG. 7A, PFS probabilities)", "setting": "[2]; [7]", "result": 406, "unit": "days"},
      {"measurement": "Median survival (FIG. 7B)", "setting": "[2]; [7]", "result": 728, "unit": "days"},
      {"measurement": "hazard ratio, tipifarnib vs reference therapy", "setting": "[3]; ANC/WBC<0.3 and marrow blasts>60%, N=110, P=0.08", "result": 0.67},
      {"measurement": "Median survival", "setting": "[3]; ANC/WBC<0.4, WBC>2, platelets>20, N=135", "result": 146, "unit": "days"},
      {"measurement": "hazard ratio, tipifarnib vs BSC", "setting": "[3]; ANC/WBC<0.4, WBC>2, platelets>20, N=135, P=0.046", "result": 0.7},
      {"measurement": "median progression free survival (PFS)", "setting": "[3]; BMR<0.1 prior to treatment, N=73", "result": 83, "unit": "days"},
      {"measurement": "median PFS", "setting": "[3]; BMR≥0.1 prior to treatment, N=140", "result": 60, "unit": "days"},
      {"measurement": "Median OS", "setting": "[3]; overall study", "result": 107, "unit": "days"},
      {"measurement": "Hazards ratio, Tipifarnib compared with BSC", "setting": "[3]; overall study, N=457, non significant", "result": 1.02},
      {"measurement": "Median survival", "setting": "[3]; subset with high BM blasts (>40%) and low peripheral blasts (<10%), N=82", "result": 201, "unit": "days"},
      {"measurement": "HR, tipifarnib vs BSC", "setting": "[3]; subset with high BM blasts (>40%) and low peripheral blasts (<10%), N=82, P=0.019", "result": 0.58},
      {"measurement": "conversion to transfusion independence (TI)", "setting": "[4]; 67 transfusion dependent (TD) subjects, 300 mg bid, 3 weeks on/1 week off", "result": 16, "unit": "%"},
      {"measurement": "conversion to transfusion independence", "setting": "[4]; MDS subjects with neutropenia and high peripheral blast cell count >1%", "result": 11, "unit": "%"},
      {"measurement": "conversion to transfusion independence", "setting": "[4]; MDS subjects with neutropenia and low peripheral blast cell count ≤1%", "result": 38, "unit": "%"},
      {"measurement": "conversion to transfusion independence", "setting": "[4]; TD MDS subjects with moderate to severe neutropenia (ANC <1,000 cells/μl)", "result": 30, "unit": "%"},
      {"measurement": "conversion to transfusion independence", "setting": "[4]; TD MDS subjects without moderate to severe neutropenia (ANC ≥1,000 cells/μl)", "result": 5, "unit": "%"},
      {"measurement": "persistence of RBC and platelet transfusion independence", "setting": "[4]; exemplary MDS subject, ANC at screening=400 cells/μl, 300 mg bid, 3 weeks on/1 week off", "result": 308, "unit": "days"}
    ]}
  ]
}
